This note sets out measurements from patent publication US9006241B2, “Pyrimidine derivatives” (Noviga Research AB, priority 2011, dated 2015).

What all share (type): cell-based
Experiment [1] relates to CCRF-CEM cancer cells - leukemia. Kind of experiment: Fluorometric Microculture Cytotoxicity Assay (FMCA), CCRF-CEM. To be noted: Homo sapiens, 72 h incubation. An excerpt: (§1) The Fluorometric Microculture Cytotoxicity Assay, FMCA (Larsson, R., et al.; Anticancer Res, 1989, 9, 1111-1119), is a three day non-clonogenic microplate-based cell viability assay used for measurement of the cytotoxic and/or cytostatic effect of compounds in vitro (Lindhagen, E. et al.; Nat. Protoc., 2008, 3, 1364-1369). FMCA represents a valuable method to measure cytotoxicity in a number of cell types, both cell lines and primary cells from patients (Larsson, R., et al.; Int. J. Cancer, 1992, 50, 177-185; Fridborg, H., et al.; Eur. J. Cancer, 1999. 35, 424-432; Dhar, S., et al.; Br. J. Cancer, 1996, 74, 888-896).
(§2) FMCA is based on the principle that fluorescein diacetate (FDA) is converted to the fluorescent probe fluorescein by esterases in the plasma membranes of living cells. For experiments, 96 or 384-well microplates are prepared with compounds and stored at −70° C. until use. Cells are then seeded into the drug-prepared plates and placed in an incubator for 72 h. On the last day of incubation, the plates are washed and a buffer containing FDA is added and incubated with the cells for 45 minutes. Finally the fluorescence per well is measured in a fluorometer and a Survival Index % (SI) for each compound-treated well is calculated with the equation: Compound-treated cells minus blank divided by control cells minus blank. A high SI-value indicates a large percentage of living cells and vice versa.
In subsequent experiments, compounds were tested, along with a number of approved cancer drugs (dasatinib, pazopanib, sorafenib, and sunitinib) as described above. Initially, the acute lymphoblastic leukemia cell line CCRF-CEM was used throughout. In the assay plates, medium was added to six empty wells (blank wells) and wells were filled with PBS and cell suspension and served as control wells. SI-values were then calculated for each compound-treated well as described above. All experiments were conducted twice and a new batch of plates was prepared for each experiment.
(§3) For dose-response experiments, 384-well plates were prepared as follows:
(§4) Compounds of the invention as well comparative kinase inhibitors sorafenib sunitinib, dasatinib, pazopanib and a reference compound disclosed in WO 2009/071535 (compound #107) were diluted with PBS to a concentration ten-times higher than the desired starting concentration. Then, a Biomek 2000 liquid handling system was employed to serially dilute the compounds in a deep-well 384-well plate. From this plate, assay plates containing 5 μl compound per well were prepared with the Biomek 2000. Certain compounds precipitated when diluted with PBS, and these compounds were therefore prepared in a 96-well plate manually as described above using culture medium RPMI 1640 instead of PBS.
(§5) The compounds were also tested at five concentrations, with five times serial dilution on the following cell types: CCRF-CEM, hTERT-RPE1 (normal retinal epithelial cells), hRPTEpiC (normal renal cells), and peripheral blood mononuclear cells (PBMC). Each experiment was performed three times, except for PBMC and hRPTEpiC, which were performed twice. SI-values were calculated, graphs were plotted using GraphPadPrism 5.0 (GraphPad Software Inc. La Jolla, Calif.) and IC50-values for each cell type and compound were determined from the curves.

The test system of a further experiment is RPMI 8226 (myeloma). Kind of experiment: FMCA, RPMI 8226. Particulars: Homo sapiens, RPMI 8226 myeloma cells.
Excerpt: as §1, §2, §3, §4, §5
(§6) The compounds of the invention were also tested on further cancer cell lines related to breast cancer (MDA-MB-231; see e.g. Cailleau, R., et al.; J. Natl. Cancer Inst., 1974, 53, 661-674), teniposide-resistant leukemia (CEM/VM1 see e.g. Danks, M., et al.; Cancer Res., 1987, 47, 1297-1301), leukemia (HL-60; see e.g. Collins, S., et al.; Nature, 1977, 270, 347-349), doxorubicin-resistant lung cancer (H69AR; see e.g. Mirski, S., et al.; Cancer Res., 1987, 47, 2594-2598), myeloma (RPMI 8226; see e.g. Matsuoka, Y., et al.; Proc. Soc. Exp. Biol. Med., 1967, 125, 1246-1250), doxorubicin-resistant myeloma (8226/Dox40; see e.g. Dalton, W., et al.; Blood, 1989, 15, 747-752), lymphoma (U-937, see e.g. Sundström, C., et al.; Int. J. Cancer, 1976, 17, 565-577), vincristin-resistant lymphoma (U-937-vcr; see e.g. Botling, J., et al.; Int. J. Cancer, 1994, 58, 269-274), ovarian cancer (A2780; see e.g. Hamilton, T., et al.; Semin. Oncol., 1984, 11, 285-298), doxorubicin-resistant ovarian cancer (A2780/Adr), cisplatin-resistant ovarian cancer (A2780/Cis; see e.g. Behrens, B., et al. Cancer Res. 1987, 47, 414-418), pancreatic cancer (PANC-1, BxPC-3, and MIA PaCa-2; see e.g. Lieber, M., et al.; Int. J. Cancer, 1975, 15, 741-747; Loor, R., et al.; Clin. Lab. […]

Experiment [2] has as its system CEM/VM1 (teniposide-resistant leukemia). The experiment in a line: FMCA, CEM/VM1. To be noted: Homo sapiens, CEM/VM1 teniposide-resistant leukemia cells.
Excerpt: as §1, §2, §3, §4, §5, §6

The test system of experiment [3] is U-937-vcr (vincristin-resistant lymphoma). The experiment in a line: FMCA, U-937-vcr. Particulars: U-937-vcr vincristin-resistant lymphoma cells.
Excerpt: as §1, §2, §3, §4, §5, §6

A further experiment concerns U-937 (lymphoma). Kind of experiment: FMCA, U-937. Particulars: Homo sapiens, U-937 lymphoma cells.
Excerpt: as §1, §2, §3, §4, §5, §6

Experiment [4] deals with A2780/Cis (cisplatin-resistant ovarian cancer). Kind of experiment: FMCA, A2780/Cis. To be noted: A2780cis, A2780/Cis cisplatin-resistant ovarian cancer cells.
Excerpt: as §1, §2, §3, §4, §5, §6

The test system of experiment [5] is H69AR (doxorubicin-resistant lung cancer). The experiment in a line: FMCA, H69AR. Particulars: Homo sapiens, H69AR doxorubicin-resistant lung cancer cells.
Excerpt: as §1, §2, §3, §4, §5, §6

In experiment [6] the test system is A2780/Adr (doxorubicin-resistant ovarian cancer). Kind of experiment: FMCA, A2780/Adr. To be noted: A2780/Adr doxorubicin-resistant ovarian cancer cells.
Excerpt: as §1, §2, §3, §4, §5, §6

Experiment [7] relates to 8226/Dox40 (doxorubicin-resistant myeloma). The experiment in a line: FMCA, 8226/Dox40. Particulars: 8226/Dox40 doxorubicin-resistant myeloma cells.
Excerpt: as §1, §2, §3, §4, §5, §6

The next experiment concerns A2780 (ovarian cancer). Kind of experiment: FMCA, A2780. Particulars: Homo sapiens, A2780 ovarian cancer cells.
Excerpt: as §1, §2, §3, §4, §5, §6

A word on the EC50: it is the concentration needed to bring the measured effect to its halfway point. High values mean a need for much substance, low ones an effect from little substance.

On to `Cc1ccc2[nH]cc(CCNc3nccc(Nc4ccc5[nH]c(C)cc5c4)n3)c2c1` [Example 9, N^2-[2-(5-methyl-1H-indol-3-yl)ethyl]-N^4-(2-methyl-1H-indol-5-yl)pyrimidine-2,4-diamine], for which the EC50 in experiment [1] is 38 nM; with RPMI 8226 (myeloma), 170 nM; in experiment [2], 64 nM; in [3], 46 nM; in the experiment with U-937 (lymphoma) it was 80 nM; in experiment [4], 200 nM. In addition, the EC50 in experiment [5] was 170 nM; in experiment [6], 820 nM; in experiment [7] it was 200 nM; in the experiment on A2780 (ovarian cancer), 210 nM.
